System: MV-4-11 cells
Test: Gene expression microarray analysis (Affymetrix PrimeView) and GSEA
Format: cell-based, human
Set-up: RFU PODN (11730768_x_at) / Fold change /veh PODN (11730768_x_at) / RFU LINC00158 (11744669_a_at) / Fold change /veh LINC00158 (11744669_a_at) / RFU DUSP10 (11751237_a_at) / Fold change /veh DUSP10 (11751237_a_at) / RFU ID3 (11757404_x_at) / Fold change /veh ID3 (11757404_x_at) / RFU PLEKHG5 (11737974_s_at) / Fold change /veh PLEKHG5 (11737974_s_at) / RFU LRRC4B (11730491_at) / Fold change /veh LRRC4B (11730491_at) / RFU GIMAP4 (11747438_a_at) / Fold change /veh GIMAP4 (11747438_a_at) / RFU KRT8 (11758183_x_at) / Fold change /veh KRT8 (11758183_x_at) / RFU CNN1 (11734310_a_at) / Fold change /veh CNN1 (11734310_a_at) / RFU VPS37D (11726825_at) / Fold change /veh VPS37D (11726825_at) / RFU C10orf10 (11716522_x_at) / Fold change /veh C10orf10 (11716522_x_at) / RFU KIR2DL2 /// KIR2DL4 /// KIR2DL5A /// KIR2DL5B /// KIR2DS1 /// KIR2DS2 /// KIR2DS3 /// KIR2DS4 /// KIR3DL3 /// KIR3DL3 /// KIR3DS1 (11738374_at) / Fold change /veh KIR2DL2 /// KIR2DL4 /// KIR2DL5A /// KIR2DL5B /// KIR2DS1 /// KIR2DS2 /// KIR2DS3 /// KIR2DS4 /// KIR3DL3 /// KIR3DL3 /// KIR3DS1 (11738374_at) / RFU C1QL1 (11718748_at) / Fold change /veh C1QL1 (11718748_at) / RFU TMPRSS4 (11747572_a_at) / Fold change /veh TMPRSS4 (11747572_a_at) / RFU HAMP (11756126_x_at) / Fold change /veh HAMP (11756126_x_at) / RFU RNFT2 (11725882_a_at) / Fold change /veh RNFT2 (11725882_a_at) / RFU NR4A2 (11747474_a_at) / Fold change /veh NR4A2 (11747474_a_at) / RFU ABCC12 (11746883_a_at) / Fold change /veh ABCC12 (11746883_a_at) / RFU TMEM136 (11760407_x_at) / Fold change /veh TMEM136 (11760407_x_at) / RFU CLDN22 /// WWC2 (11732394_at) / Fold change /veh CLDN22 /// WWC2 (11732394_at) / RFU HLA-DPB1 (11760878_x_at) / Fold change /veh HLA-DPB1 (11760878_x_at) / RFU SPINT1 (11716480_a_at) / Fold change /veh SPINT1 (11716480_a_at) / RFU GAP43 (11754022_s_at) / Fold change /veh GAP43 (11754022_s_at) / RFU A4GNT (11735810_at) / Fold change /veh A4GNT (11735810_at) / RFU PRB3 (11715151_x_at) / Fold change /veh PRB3 (11715151_x_at) / RFU TUBB4B (11761932_at) / Fold change /veh TUBB4B (11761932_at) / RFU CAPN14 (11732068_a_at) / Fold change /veh CAPN14 (11732068_a_at) / RFU TMCC2 (11721928_a_at) / Fold change /veh TMCC2 (11721928_a_at) / RFU IRGQ (11745062_a_at) / Fold change /veh IRGQ (11745062_a_at) / RFU FAM174B (11720279_a_at) / Fold change /veh FAM174B (11720279_a_at) / RFU TMPRSS4 (11748680_a_at) / Fold change /veh TMPRSS4 (11748680_a_at) / RFU FAM212B (11763350_a_at) / Fold change /veh FAM212B (11763350_a_at) / RFU PLEKHG5 (11743358_a_at) / Fold change /veh PLEKHG5 (11743358_a_at) / RFU ZSCAN30 (11745921_a_at) / Fold change /veh ZSCAN30 (11745921_a_at) / RFU CMKLR1 (11741424_a_at) / Fold change /veh CMKLR1 (11741424_a_at) / RFU LOC101060620 /// MAPK8IP1 (11723275_at) / Fold change /veh LOC101060620 /// MAPK8IP1 (11723275_at) / RFU SPTSSB (11747773_x_at) / Fold change /veh SPTSSB (11747773_x_at) / RFU PRSS12 (11739890_at) / Fold change /veh PRSS12 (11739890_at) / RFU BIN1 (11741810_x_at) / Fold change /veh BIN1 (11741810_x_at) / RFU WNT11 (11732464_a_at) / Fold change /veh WNT11 (11732464_a_at) / RFU C10orf10 (11716521_a_at) / Fold change /veh C10orf10 (11716521_a_at) / RFU C5orf56 (11738089_at) / Fold change /veh C5orf56 (11738089_at) / RFU CYB561 (11721691_x_at) / Fold change /veh CYB561 (11721691_x_at) / RFU ANKRD19P (11752326_a_at) / Fold change /veh ANKRD19P (11752326_a_at) / RFU OR2T12 /// OR2T33 /// OR2T8 (11738714_s_at) / Fold change /veh OR2T12 /// OR2T33 /// OR2T8 (11738714_s_at) / RFU VCAN (11748164_a_at) / Fold change /veh VCAN (11748164_a_at) / RFU JSRP1 (11732532_at) / Fold change /veh JSRP1 (11732532_at) / RFU KRTAP10-11 (11738290_x_at) / Fold change /veh KRTAP10-11 (11738290_x_at) / RFU MYO3A (11730013_a_at) / Fold change /veh MYO3A (11730013_a_at) / RFU EBF3 (11725865_a_at) / Fold change /veh EBF3 (11725865_a_at) / RFU CAMK2N1 (11719241_x_at) / Fold change /veh CAMK2N1 (11719241_x_at) / RFU C5orf56 (11738088_a_at) / Fold change /veh C5orf56 (11738088_a_at) / RFU OLFML3 (11715873_a_at) / Fold change /veh OLFML3 (11715873_a_at) / RFU LOC100653217 /// NTM (11731650_a_at) / Fold change /veh LOC100653217 /// NTM (11731650_a_at) / RFU MAPK11 (11762145_a_at) / Fold change /veh MAPK11 (11762145_a_at) / RFU FIZ1 (11724087_x_at) / Fold change /veh FIZ1 (11724087_x_at) / RFU OASL (11726364_x_at) / Fold change /veh OASL (11726364_x_at) / RFU SOX15 (11748057_x_at) / Fold change /veh SOX15 (11748057_x_at) / RFU CD79A (11719716_a_at) / Fold change /veh CD79A (11719716_a_at) / RFU HIST1H1D (11736915_at) / Fold change /veh HIST1H1D (11736915_at) / RFU CASKIN2 (11723855_a_at) / Fold change /veh CASKIN2 (11723855_a_at) / RFU LOC730098 (11760151_x_at) / Fold change /veh LOC730098 (11760151_x_at) / RFU OR4N2 (11742367_at) / Fold change /veh OR4N2 (11742367_at) / RFU PRRT2 (11749266_a_at) / Fold change /veh PRRT2 (11749266_a_at) / RFU SNX32 (11753110_a_at) / Fold change /veh SNX32 (11753110_a_at) / RFU CDHR5 (11726645_a_at) / Fold change /veh CDHR5 (11726645_a_at) / RFU RCAN1 (11760418_a_at) / Fold change /veh RCAN1 (11760418_a_at) / RFU FAM167A (11723789_a_at) / Fold change /veh FAM167A (11723789_a_at) / RFU FAM26E (11764081_at) / Fold change /veh FAM26E (11764081_at) / RFU ISYNA1 (11749810_s_at) / Fold change /veh ISYNA1 (11749810_s_at) / RFU ACY1 (11761880_at) / Fold change /veh ACY1 (11761880_at) / RFU 11764098_at / Fold change /veh 11764098_at / RFU SAMD14 (11745864_x_at) / Fold change /veh SAMD14 (11745864_x_at) / RFU NPB (11741838_a_at) / Fold change /veh NPB (11741838_a_at) / RFU TMPRSS6 (11731388_a_at) / Fold change /veh TMPRSS6 (11731388_a_at) / RFU KRTAP10-2 (11738614_at) / Fold change /veh KRTAP10-2 (11738614_at) / RFU ARHGAP8 /// PRR5-ARHGAP8 (11727945_x_at) / Fold change /veh ARHGAP8 /// PRR5-ARHGAP8 (11727945_x_at) / RFU KRTAP5-7 /// NADSYN1 (11734609_at) / Fold change /veh KRTAP5-7 /// NADSYN1 (11734609_at) / RFU RASL12 (11751679_a_at) / Fold change /veh RASL12 (11751679_a_at) / RFU CDKN2B (11736163_a_at) / Fold change /veh CDKN2B (11736163_a_at) / RFU PRF1 (11729649_at) / Fold change /veh PRF1 (11729649_at) / RFU, ZNF638 /// ZNF638-IT1 / Fold change vs veh, ZNF638 /// ZNF638-IT1 / RFU, PANK3 / Fold change vs veh, PANK3 / RFU, SH3YL1 / Fold change vs veh, SH3YL1 / RFU, ZEB2 / Fold change vs veh, ZEB2 / RFU, NRIP1 / Fold change vs veh, NRIP1 / RFU, PTTG1IP / Fold change vs veh, PTTG1IP / RFU, CAPN2 / Fold change vs veh, CAPN2 / RFU, MED14 / Fold change vs veh, MED14 / RFU, SNORA58 / Fold change vs veh, SNORA58 / RFU, C1orf63 / Fold change vs veh, C1orf63 / RFU, LRRFIP1 / Fold change vs veh, LRRFIP1 / RFU, NDUFAF7 / Fold change vs veh, NDUFAF7 / RFU, SLC12A2 / Fold change vs veh, SLC12A2 / RFU, IBTK / Fold change vs veh, IBTK / RFU, ESF1 / Fold change vs veh, ESF1 / Fold change vs veh, TMEM50B / RFU, TAOK1 / Fold change vs veh, TAOK1 / RFU, ACBD3 / Fold change vs veh, ACBD3 / RFU, TMA16 / Fold change vs veh, TMA16 / RFU, RWDD3 / Fold change vs veh, RWDD3 / RFU, BCAT1 / Fold change vs veh, BCAT1 / RFU, EDEM3 / Fold change vs veh, EDEM3 / RFU, TMEM33 / Fold change vs veh, TMEM33 / RFU, WDR75 / Fold change vs veh, WDR75 / RFU, AHCTF1 / Fold change vs veh, AHCTF1 / RFU, TFRC / Fold change vs veh, TFRC / RFU, ZDHHC17 / Fold change vs veh, ZDHHC17 / RFU, NOM1 / Fold change vs veh, NOM1 / RFU, ARL8B / Fold change vs veh, ARL8B / RFU, ZBTB11 / Fold change vs veh, ZBTB11 / RFU, TAMM41 / Fold change vs veh, TAMM41 / RFU, KIAA1704 /// LOC100996395 / Fold change vs veh, KIAA1704 /// LOC100996395 / RFU, ING1 / Fold change vs veh, ING1 / RFU, TRMT61B / Fold change vs veh, TRMT61B / RFU, FUBP3 / Fold change vs veh, FUBP3 / RFU, TP53 / Fold change vs veh, TP53 / RFU, TNKS2 / Fold change vs veh, TNKS2 / RFU, ZFP14 / Fold change vs veh, ZFP14 / RFU, ACTR2 / Fold change vs veh, ACTR2 / RFU, PPP3R1 / Fold change vs veh, PPP3R1 / RFU, PIK3R1 / Fold change vs veh, PIK3R1 / RFU, HNRNPA1 / Fold change vs veh, HNRNPA1 / RFU, RNF170 / Fold change vs veh, RNF170 / RFU, ZNF28 / Fold change vs veh, ZNF28 / RFU, RNGTT / Fold change vs veh, RNGTT / RFU, OGT / Fold change vs veh, OGT / RFU, BRD1 / Fold change vs veh, BRD1 / RFU, MARS / Fold change vs veh, MARS / RFU, ZNF655 / Fold change vs veh, ZNF655 / RFU, FAHD1 / Fold change vs veh, FAHD1 / RFU, BDP1 / Fold change vs veh, BDP1 / RFU, LRRCC1 / Fold change vs veh, LRRCC1 / RFU, ARID1A / Fold change vs veh, ARID1A / RFU, ZNF146 / Fold change vs veh, ZNF146 / RFU, ZNF330 / Fold change vs veh, ZNF330 / RFU, GPN3 / Fold change vs veh, GPN3 / RFU, C9orf123 / Fold change vs veh, C9orf123 / RFU, N4BP2L2 / Fold change vs veh, N4BP2L2 / RFU, ARFIP1 / Fold change vs veh, ARFIP1 / RFU, FAM179B / Fold change vs veh, FAM179B / RFU, BCL10 / Fold change vs veh, BCL10 / RFU, UHRF1BP1L / Fold change vs veh, UHRF1BP1L / RFU, BET1 / Fold change vs veh, BET1 / RFU, CNOT2 / Fold change vs veh, CNOT2 / RFU, ZNF268 / Fold change vs veh, ZNF268 / Fold change vs veh, ZNF507 / RFU, DGCR2 / Fold change vs veh, DGCR2 / RFU, WDSUB1 / Fold change vs veh, WDSUB1 / Fold change vs veh, HSP90B1 /// MIR3652 / RFU, ADSS / Fold change vs veh, ADSS / RFU, GK / Fold change vs veh, GK / RFU, ZNF148 / Fold change vs veh, ZNF148 / RFU, TAF9 / Fold change vs veh, TAF9 / RFU, SLC1A5 / Fold change vs veh, SLC1A5 / RFU, SLMO2 / Fold change vs veh, SLMO2 / RFU, ABCC4 / Fold change vs veh, ABCC4 / RFU, LOC101060439 /// RAP1B / Fold change vs veh, LOC101060439 /// RAP1B / RFU, RFX7 / Fold change vs veh, RFX7 / RFU, GTPBP10 / Fold change vs veh, GTPBP10 / RFU, CNEP1R1 / Fold change vs veh, CNEP1R1 / RFU, BIVM-ERCC5 /// ERCC5 / Fold change vs veh, BIVM-ERCC5 /// ERCC5 / RFU, ILF3 / Fold change vs veh, ILF3 / RFU 11762660_at / Fold change /veh 11762660_at / RFU VCAN (11757783_s_at) / Fold change /veh VCAN (11757783_s_at) / RFU DDX43 (11728927_at) / Fold change /veh DDX43 (11728927_at) / RFU KRT8 (11758188_x_at) / Fold change /veh KRT8 (11758188_x_at) / RFU NKD1 (11759106_at) / Fold change /veh NKD1 (11759106_at) / RFU SRD5A1 (11742802_a_at) / Fold change /veh SRD5A1 (11742802_a_at) / RFU TPSAB1 /// TPSB2 (11721975_s_at) / Fold change /veh TPSAB1 /// TPSB2 (11721975_s_at) / RFU GSTM3 (11746129_a_at) / Fold change /veh GSTM3 (11746129_a_at) / RFU IL23R (11737362_x_at) / Fold change /veh IL23R (11737362_x_at) / RFU TMEM51 (11727254_a_at) / Fold change /veh TMEM51 (11727254_a_at) / RFU PIWIL2 (11732686_x_at) / Fold change /veh PIWIL2 (11732686_x_at) / RFU ORM1 (11744905_x_at) / Fold change /veh ORM1 (11744905_x_at) / RFU CCDC152 (11743942_at) / Fold change /veh CCDC152 (11743942_at) / RFU ECM1 (11717891_a_at) / Fold change /veh ECM1 (11717891_a_at) / RFU IL23R (11748794_a_at) / Fold change /veh IL23R (11748794_a_at) / RFU TNFAIP8L3 (11732012_x_at) / Fold change /veh TNFAIP8L3 (11732012_x_at) / RFU MBOAT4 (11741988_at) / Fold change /veh MBOAT4 (11741988_at) / RFU 11764193_at / Fold change /veh 11764193_at / RFU TMEM53 (11763286_at) / Fold change /veh TMEM53 (11763286_at) / RFU MAGEB2 (11727129_at) / Fold change /veh MAGEB2 (11727129_at) / RFU TMEM200A (11744735_a_at) / Fold change /veh TMEM200A (11744735_a_at) / RFU CCDC152 (11751479_a_at) / Fold change /veh CCDC152 (11751479_a_at) / RFU FAM211A (11726209_a_at) / Fold change /veh FAM211A (11726209_a_at) / RFU RGS16 (11746705_a_at) / Fold change /veh RGS16 (11746705_a_at) / RFU VCAN (11755009_s_at) / Fold change /veh VCAN (11755009_s_at) / RFU RHOB (11743442_s_at) / Fold change /veh RHOB (11743442_s_at) / RFU RGS16 (11720943_a_at) / Fold change /veh RGS16 (11720943_a_at) / RFU RGS16 (11720944_at) / Fold change /veh RGS16 (11720944_at) / RFU, VPS4B / Fold change vs veh, VPS4B / RFU, CREB1 / Fold change vs veh, CREB1 / RFU, DNAJC13 / Fold change vs veh, DNAJC13 / RFU, GNAQ / Fold change vs veh, GNAQ / RFU, CDK5R1 / Fold change vs veh, CDK5R1 / RFU, ZRANB3 / Fold change vs veh, ZRANB3 / RFU, CUL4A / Fold change vs veh, CUL4A / RFU, CCNY / Fold change vs veh, CCNY / RFU, UFL1 / Fold change vs veh, UFL1 / RFU, COG3 / Fold change vs veh, COG3 / RFU, DIAPH2 / Fold change vs veh, DIAPH2 / RFU, SKA2 / Fold change vs veh, SKA2 / RFU, AFF3 / Fold change vs veh, AFF3 / RFU, LMF1 / Fold change vs veh, LMF1 / RFU, IPO11 / Fold change vs veh, IPO11 / RFU, DFFB / Fold change vs veh, DFFB / RFU, FOXP1 / Fold change vs veh, FOXP1 / RFU, CARD8 / Fold change vs veh, CARD8 / RFU, STRN3 / Fold change vs veh, STRN3 / RFU, ADK / Fold change vs veh, ADK / RFU, RASSF2 / Fold change vs veh, RASSF2 / RFU, WIPF1 / Fold change vs veh, WIPF1 / RFU, LARP1B / Fold change vs veh, LARP1B / RFU, RASA1 / Fold change vs veh, RASA1 / RFU, RB1 / Fold change vs veh, RB1 / RFU, PPFIA1 / Fold change vs veh, PPFIA1 / RFU, MAT2A / Fold change vs veh, MAT2A / RFU, CCT5 / Fold change vs veh, CCT5 / RFU, WDR92 / Fold change vs veh, WDR92 / RFU, CUX1 / Fold change vs veh, CUX1 / RFU, TTC7A / Fold change vs veh, TTC7A / RFU, TMEM135 / Fold change vs veh, TMEM135 / RFU, DEPTOR / Fold change vs veh, DEPTOR / RFU, CPM / Fold change vs veh, CPM / RFU, DNAJB6 / Fold change vs veh, DNAJB6 / RFU, CACNA2D3 / Fold change vs veh, CACNA2D3 / RFU, DTX4 / Fold change vs veh, DTX4 / RFU, TFCP2 / Fold change vs veh, TFCP2 / RFU, GMCL1 /// GMCL1P1 / Fold change vs veh, GMCL1 /// GMCL1P1 / RFU, AEBP2 / Fold change vs veh, AEBP2 / RFU, SNHG1 /// SNORD22 /// SNORD25 /// SNORD26 /// SNORD27 /// SNORD28 /// SNORD29 /// SNORD31 / Fold change vs veh, SNHG1 /// SNORD22 /// SNORD25 /// SNORD26 /// SNORD27 /// SNORD28 /// SNORD29 /// SNORD31 / Fold change (Aza/veh), C12orf56 (ProbeSet 11735607_a_at) / Fold change (ACY-1035/veh), C12orf56 (ProbeSet 11735607_a_at) / Fold change (Aza/veh), FGFR1OP (ProbeSet 11751329_s_at) / Fold change (ACY-1035/veh), FGFR1OP (ProbeSet 11751329_s_at) / Fold change (Aza/veh), VPS36 (ProbeSet 11739960_a_at) / Fold change (ACY-1035/veh), VPS36 (ProbeSet 11739960_a_at) / RFU SYPL1 (11715823_x_at) / Fold change /veh SYPL1 (11715823_x_at) / RFU IGFBP7 (11715501_s_at) / Fold change /veh IGFBP7 (11715501_s_at) / RFU REEP3 (11722064_at) / Fold change /veh REEP3 (11722064_at) / RFU IGLL1 (11728026_x_at) / Fold change /veh IGLL1 (11728026_x_at): dose or concentration left out as unconfirmed
Conditions: ProbeSet 11764057_s_at; LIST B

Nc1ncn([C@@H]2O[C@H](CO)[C@@H](O)[C@H]2O)c(=O)n1 [azacitidine]
RFU, C1orf63: 124.54 RFU
